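Dose response: 5 concentrations. Exposure: 48 h. Format: 96-well plates. Endpoint: linear interpolation; highest concentration if not reached. GI50 = concentration required for 50% inhibition of growth. Definition used: TGI = concentration required for complete inhibition of growth.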
Experiments:
Assay in all cases: NCI tumour cell line growth inhibition, 48 h
DMS 114 small cell lung = test system: DMS 114 small cell lung
HOP-18 NSCLC = test system: HOP-18 NSCLC
M19-MEL melanoma = test system: M19-MEL melanoma
BT-549 breast = test system: BT-549 breast
MCF7 breast = test system: MCF7 breast
MDA-MB-231 breast = test system: MDA-MB-231 breast
MDA-MB-435 = test system: MDA-MB-435
MDA-N = test system: MDA-N

Structure (SMILES) | GI50 (DMS 114 small cell lung) | TGI (DMS 114 small cell lung) | GI50 (HOP-18 NSCLC) | TGI (HOP-18 NSCLC) | GI50 (M19-MEL melanoma) | TGI (M19-MEL melanoma) | GI50 (BT-549 breast) | TGI (BT-549 breast) | GI50 (MCF7 breast) | TGI (MCF7 breast) | GI50 (MDA-MB-231 breast) | TGI (MDA-MB-231 breast) | GI50 (MDA-MB-435) | TGI (MDA-MB-435) | TGI (MDA-N)
C[CH2][Sn]1([CH2]C)[O]C(=O)[O][Sn]([CH2]C)([CH2]C)[O]1 | 12.6 µM | 26.7 µM | 17.2 µM | 31.2 µM | 18.5 µM | 37.9 µM | – | – | – | – | – | – | – | – | –
Cc1cc(/C=C2\SC(=Nc3ccccc3)N(C3CCCC3)C2=O)c(C)n1-c1ccc(Cl)cc1 | – | – | – | – | – | – | > 100 µM | > 100 µM | > 100 µM | > 100 µM | > 100 µM | > 100 µM | > 100 µM | > 100 µM | –
CC(=O)OCC1OC(n2c(-c3ccccc3)cc(-c3ccco3)c(C#N)c2=O)C(OC(C)=O)C(OC(C)=O)C1OC(C)=O (stereo not given) | – | > 100 µM | 28.2 µM | 78.1 µM | – | > 100 µM | – | – | – | – | – | – | – | – | –
COc1cc(OC2OC(C)C(O)C(O)C2O)cc2oc(-c3ccc(O)cc3)c(CC=C(C)C)c(=O)c12 (stereo not given) | – | – | – | – | – | – | 31.2 µM | > 100 µM | 13.9 µM | 48.2 µM | 6.38 µM | 21.4 µM | 20.5 µM | 59.9 µM | –
Cc1c(CCCl)c(=O)n2c([nH]c3ccccc32)c1C#N | – | – | – | – | – | – | – | 3.63 µM | – | > 10 µM | – | 3.09 µM | – | 4.05 µM | 3.33 µM
Oc1ccc(N=Nc2ccc(Cl)cc2)cc1 | – | – | – | – | – | – | – | 32.6 µM | – | 35.9 µM | – | 24.3 µM | – | 29 µM | 30.6 µM
CC(=O)NC(CCCCNC(=O)OCc1ccccc1)C(=O)NCc1ccccc1 (stereo not given) | – | > 100 µM | – | – | – | > 100 µM | – | – | – | – | – | – | – | – | –
O=c1cc(-c2ccccc2)[nH]c2cccc(S)c12 | – | – | – | – | – | – | – | > 100 µM | – | > 100 µM | – | – | – | – | –
COc1cc(/C=C/c2cc(C(F)(F)F)[nH]c(=O)n2)ccc1OCc1ccccc1F | – | – | – | – | – | – | 5.04 µM | 20.6 µM | 4.13 µM | 17.3 µM | 13.1 µM | 53 µM | 3.77 µM | 17 µM | –
O=C(Nc1ccccc1)c1ccc(Cl)c([N+](=O)[O-])c1 | – | 33.2 µM | – | – | – | 34.3 µM | – | – | – | – | – | – | – | – | –
CCN(CC)CCNc1c(OC)cc(C)c2sc3ccccc3c(=O)c12 | – | – | – | – | – | – | – | 24.2 µM | – | 18.7 µM | – | 10.1 µM | – | 8.16 µM | –
CN(C(=O)c1ccc(Cl)s1)C(=S)N(C)C(=O)c1ccc(Cl)s1 | – | – | – | – | – | – | – | > 10 µM | – | > 10 µM | – | > 10 µM | – | – | > 10 µM
COc1cc(OC)c(/C=C/c2ccc3ccccc3[n+]2C)c(OC)c1 | – | – | – | – | – | – | 0.401 µM | 7.3 µM | 0.841 µM | 10.6 µM | 1.76 µM | 12.1 µM | 0.342 µM | 1.53 µM | –
O=[N+]([O-])c1ccc2[nH]cc(-c3c4ccsc4cc4[nH]c5ccc([N+](=O)[O-])cc5c34)c2c1 | – | – | – | – | – | – | 1.49 µM | 6.36 µM | 0.606 µM | 4.75 µM | 1.2 µM | 5.75 µM | 0.145 µM | 33.3 µM | –
O=C(O)C1CCc2ccc3ccccc3c2C1c1cccc2ccccc12 (stereo not given) | – | – | – | – | – | – | – | 38.8 µM | – | 89.4 µM | – | 85.4 µM | – | 73.7 µM | 52.3 µM
CC1CC(c2ccccc2)=Nc2ccccc2S1(=O)=O (stereo not given) | – | 45.8 µM | – | 30 µM | – | 30.5 µM | – | – | – | – | – | – | – | – | –

Structure (SMILES) | GI50 (DMS 114 small cell lung) | TGI (DMS 114 small cell lung) | GI50 (HOP-18 NSCLC) | TGI (HOP-18 NSCLC) | GI50 (M19-MEL melanoma) | TGI (M19-MEL melanoma) | GI50 (BT-549 breast) | TGI (BT-549 breast) | GI50 (MCF7 breast) | TGI (MCF7 breast) | GI50 (MDA-MB-231 breast) | TGI (MDA-MB-231 breast) | GI50 (MDA-MB-435) | TGI (MDA-MB-435) | TGI (MDA-N)
O=C(Nc1ccccc1C(F)(F)F)c1cccc(NC2=C(Cl)C(=O)N(Cc3ccccc3)C2=O)c1 | – | – | – | – | – | – | 8.25 µM | 45.1 µM | 2.68 µM | 27.1 µM | 3.86 µM | 21.4 µM | 4.2 µM | > 33 µM | –
Cc1ccc(C(=O)c2oc3ccc4c(C)cc(=O)oc4c3c2C)cc1 | – | – | – | – | – | – | 45.6 µM | > 100 µM | 5.95 µM | > 100 µM | 11.1 µM | > 100 µM | 5.95 µM | > 100 µM | –
O=C(Oc1ccc(O)c2c(=O)n3c(cc12)[nH]c1ccccc13)c1ccccc1 | – | – | – | – | – | – | 6.35 µM | 32.2 µM | 74.1 µM | > 100 µM | 6.22 µM | 42.1 µM | 28.5 µM | 89.9 µM | –
CCN(CC)c1ccc(N=Nc2ccc(-c3nc4cccnc4o3)cc2)cc1 | – | > 100 µM | – | – | – | > 100 µM | – | – | – | – | – | – | – | – | –
CCCC(=O)c1c(NOC2OC(COC(C)=O)C(OC(C)=O)C(OC(C)=O)C2OC(C)=O)nc(OC)n(C)c1=O (stereo not given) | – | > 100 µM | – | – | – | > 100 µM | – | – | – | – | – | – | – | – | –
COc1ccc(-c2c(C3=NCCN3)nnn2-c2ccccc2)cc1 | – | > 100 µM | – | > 100 µM | – | > 100 µM | – | – | – | – | – | – | – | – | –
COc1ccc(/C=C/c2cc(OC)c(OC)c(OC)c2)cc1NC(=O)/C=C/c1ccc(F)cc1 | – | – | – | – | – | – | 4.49 µM | > 100 µM | 3.34 µM | > 100 µM | 5.8 µM | > 100 µM | – | – | –
CC1=CSC2=NC(c3ccc(Cl)c(Cl)c3)=CC(c3ccc(Cl)cc3)N12 (stereo not given) | – | – | – | – | – | – | > 100 µM | > 100 µM | > 100 µM | > 100 µM | > 100 µM | > 100 µM | > 100 µM | > 100 µM | –
CCN(CC)CCC1CC/C(=C\c2ccc(OC)cc2)C1=O (stereo not given) | – | > 100 µM | – | > 100 µM | – | > 100 µM | – | – | – | – | – | – | – | – | –
CN1CC(c2ccccc2)N(CCCCN2CC(c3ccccc3)N(C)CC2c2ccccc2)CC1c1ccccc1 (stereo not given) | – | – | – | – | – | – | – | > 100 µM | – | > 100 µM | – | > 100 µM | – | > 100 µM | > 100 µM
COc1cc([C@H](C)c2ccc3ccccc3c2)cc(OC)c1OC | – | – | – | – | – | – | 0.848 µM | 18.4 µM | – | – | 0.877 µM | 70.9 µM | – | – | –
CCCCCCC/C=C/[C@H]1O[C@]23C(=O)C[C@@]4(C[C@@H](OC5OC(CO)C(O)C(O)C5O)C[C@@H]4[C@H]2C=C1C)OC3=O (stereo not given in full) | – | – | – | – | – | – | 2.06 µM | 12.9 µM | 1.36 µM | 26.9 µM | 6.47 µM | 16.5 µM | 2.02 µM | 7.68 µM | –
COc1cc2c(cc1C)NC(=O)/C2=C\c1cc(OC)c(OC)c(OC)c1 | – | – | – | – | – | – | 29.6 µM | > 100 µM | 42.2 µM | > 100 µM | 15.8 µM | 59.2 µM | > 100 µM | > 100 µM | –
O=C(C(O)c1cn(Cc2ccccc2)c2ccccc12)N1CCCCC1 (stereo not given) | – | > 100 µM | – | 90 µM | – | > 100 µM | – | – | – | – | – | – | – | – | –
C=CC(=O)N1CCCC(n2nc(-c3ccc(Oc4ccccc4)cc3)c3c(N)ncnc32)C1 (stereo not given) | – | – | – | – | – | – | 5.85 µM | 18.5 µM | 7.88 µM | 23.9 µM | 8.42 µM | 23.6 µM | 7.85 µM | 22.5 µM | –
CC1(C)C=CC[C@]2(C)[C@H]3CC[C@@H]4[C@H]5[C@H](C(=O)/C=C/c6cccnc6)CC[C@]5(CO)CC[C@@]4(C)[C@]3(C)CC[C@@H]12 | – | – | – | – | – | – | – | – | – | – | 1.27 µM | 2.67 µM | 1.32 µM | 2.64 µM | –

From PubChem BioAssay (NCI)
